Source: patent US20030129751A1, “Tissue-engineered organs” (priority 2001, published 2003)

Test system: neointestine
Experiment: GLP-2 treatment of rats bearing tissue-engineered small intestine: morphometry and SGLT1 expression
Format: in vivo, rat
Experimental: Neointestinal cysts were engineered by seeding biodegradable polymers with neonatal rat intestinal organoid units. The implantation was also performed with small intestine organoid units that had been labeled with GFP to distinguish and verify engineered tissue from host tissue (FIG. 36). Confirmation of GFP production was obtained by simultaneous in vitro culture of the organoid units. The cysts were matured and anastomosed to the native jejunum of syngenic adult recipients. Histology and surface area calculations were performed, as well as Northern blot and localization analysis of the Na+/glucose cotransporter (SGLT1). GLP-2 treatment augmented the absorptive surface area of engineered intestine […]. Animals were treated with [[…]]GLP-2 (twice daily, 1 μg/g body weight), a long-acting analogue of GLP-2, or vehicle alone (control) for 10 days. Rats were then sacrificed and tissues harvested for analysis. Histological parameters and surface area determinations were done using computer-based morphometry.

[1] = [Gly2]GLP-2 twice daily 1 μg/g body weight, 10 days, mean±S.D.
[2] = [Gly2]GLP-2 twice daily 1 μg/g body weight, 10 days, mean±S.D., p < 0.05

With “[Gly2]GLP-2 (HGDGSFSDEMNTILDNLAARDFINWLIQTKITD; Glucagon-like peptide 2; UniProt P01275 146-178, looked up, variant A2G) [a long-acting analogue of GLP-2]” the “SGLT1 mRNA expression in the neointestine” value (Northern blot, vs vehicle control) was “two-fold increase”, the “Crypt Width” value [1] was 63 ± 6 microns and the “Villus Width” value [1] was 114 ± 32 microns. The “Surface Area (mucosal amplification ratio)” value [2] was 7.3 ± 1.4, the “Villus Height” value [2] was 456 ± 23 microns and the SGLT1 expression topography (localization analysis) was “unperturbed”. For the same substance, the “Expansion of absorptive surface area” value (vs vehicle control, 10 days) was 40%.
